Assay results: patent US11566007B2, “Ras inhibitors” (Revolution Medicines, Inc., priority 2019, dated 2023)

Experiments:
[1] = system: NCI-H358 cells (K-Ras G12C); assay: Potency assay: pERK in NCI-H358 cells; assay type: cell-based, human; settings: Homo sapiens, NCI-H358; H358 KRAS G12C; read-out: pERK EC50
How it was run: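 Compounds are dosed as ten 3-fold dilutions from a 10 mM DMSO stock, in duplicate, and left on cells for 4 h at 37 °C, 5% CO2. Phospho-ERK1/2 is then quantified by AlphaLISA SureFire Ultra or In-Cell Western, and IC50 is derived from a 4-parameter sigmoid against log concentration.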

K-Ras G12C = K-Ras G12C (Homo sapiens (Human), UniProt P01116+P62937, G12C); assay: Ras-Raf (BRAF RBD) disruption / FRET / MOA assay, KRAS G12C; assay type: biochemical; settings: KRAS G12C; Ras-Raf disruption/FRET/MOA assay; read-out: IC50* KRAS G12C FRET data
How it was run: (§1)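 Ternary complex formation (Ras–compound–cyclophilin A) displacing BRAF RBD, monitored by TR-FRET. Three hours at 25° C with compound (top 30 μM final), then 1.5 h with the labelled antibodies. Lower ratio than DMSO indicates disruption; IC50 reported.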

K-Ras G13C = K-Ras G13C (Homo sapiens (Human), UniProt P01116+P62937, G13C); assay: Ras-Raf (BRAF RBD) disruption / FRET / MOA assay, KRAS G13C; assay type: biochemical; settings: KRAS G13C; Ras-Raf disruption/FRET/MOA assay; read-out: IC50* KRAS G13C FRET data
How it was run: as §1

KRAS G12D = KRAS G12D (Homo sapiens (Human), UniProt P01116+P62937, G12D); assay: Ras-Raf (BRAF RBD) disruption / FRET / MOA assay, KRAS G12D; assay type: biochemical; settings: Ras-Raf disruption/FRET/MOA assay; class symbols; read-out: KRAS G12D FRET data IC50
How it was run: as §1

KRAS WT = KRAS WT (Homo sapiens (Human), UniProt P01116+P62937); assay: Ras-Raf (BRAF RBD) disruption / FRET / MOA assay, KRAS WT; assay type: biochemical; settings: read-out: IC50* KRAS WT FRET data
How it was run: as §1

NRAS G12C = NRAS G12C (Homo sapiens (Human), UniProt P01111+P62937, G12C); assay: Ras-Raf (BRAF RBD) disruption / FRET / MOA assay, NRAS G12C; assay type: biochemical; settings: read-out: IC50* NRAS G12C FRET data
How it was run: as §1

NRAS WT = NRAS WT (Homo sapiens (Human), UniProt P01111+P62937); assay: Ras-Raf (BRAF RBD) disruption / FRET / MOA assay, NRAS WT; assay type: biochemical; settings: read-out: IC50* NRAS WT FRET data
How it was run: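 Compounds were tested as a 10-point 3-fold dilution series from 30 μM final for their ability to drive ternary complex formation between nucleotide-loaded Ras and cyclophilin A, displacing the BRAF RBD. After 3 h at 25° C., anti-His Eu-W1024 (10 nM) and anti-GST allophycocyanin (50 nM) were added for 1.5 h. A TR-FRET ratio decrease versus DMSO gave IC50.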

KRAS G12D, sequence (P01116-2 other isoform, or with tags, fused parts or gaps G12D): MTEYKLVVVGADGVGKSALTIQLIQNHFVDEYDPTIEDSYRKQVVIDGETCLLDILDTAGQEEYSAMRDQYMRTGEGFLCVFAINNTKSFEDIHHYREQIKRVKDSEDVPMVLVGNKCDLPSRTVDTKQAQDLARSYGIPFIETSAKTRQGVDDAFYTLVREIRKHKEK
KRAS G12D, sequence (P62937 whole entry): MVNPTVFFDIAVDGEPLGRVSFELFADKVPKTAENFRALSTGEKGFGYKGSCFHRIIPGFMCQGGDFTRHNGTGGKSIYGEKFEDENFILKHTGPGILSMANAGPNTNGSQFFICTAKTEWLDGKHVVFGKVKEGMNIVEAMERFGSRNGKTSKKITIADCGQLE
NRAS G12C, sequence (P01111 whole entry G12C): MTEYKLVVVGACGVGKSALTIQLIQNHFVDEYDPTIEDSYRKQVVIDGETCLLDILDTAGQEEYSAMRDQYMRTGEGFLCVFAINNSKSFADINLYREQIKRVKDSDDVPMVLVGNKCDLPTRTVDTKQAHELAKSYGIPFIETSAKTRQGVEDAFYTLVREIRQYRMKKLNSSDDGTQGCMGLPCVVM
NRAS G12C, sequence (P62937 whole entry): as the sequence (P62937 whole entry) above
K-Ras G12C, sequence (P01116-2 other isoform, or with tags, fused parts or gaps G12C): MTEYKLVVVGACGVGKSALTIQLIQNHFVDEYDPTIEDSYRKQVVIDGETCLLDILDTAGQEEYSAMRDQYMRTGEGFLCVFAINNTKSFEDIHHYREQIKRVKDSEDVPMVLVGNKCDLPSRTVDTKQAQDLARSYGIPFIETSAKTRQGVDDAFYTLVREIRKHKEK
K-Ras G12C, sequence (P62937 whole entry): as the sequence (P62937 whole entry) above
NRAS WT, sequence (P01111 whole entry): as the sequence (P01111 whole entry G12C) above, with C12G counted along it
NRAS WT, sequence (P62937 whole entry): as the sequence (P62937 whole entry) above
K-Ras G13C, sequence (P01116-2 other isoform, or with tags, fused parts or gaps G13C): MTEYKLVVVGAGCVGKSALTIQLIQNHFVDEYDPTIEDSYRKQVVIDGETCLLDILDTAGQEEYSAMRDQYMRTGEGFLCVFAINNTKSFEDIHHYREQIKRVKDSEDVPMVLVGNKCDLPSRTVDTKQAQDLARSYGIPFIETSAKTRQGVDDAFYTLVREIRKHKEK
K-Ras G13C, sequence (P62937 whole entry): as the sequence (P62937 whole entry) above
KRAS WT, sequence (P01116-2 other isoform, or with tags, fused parts or gaps): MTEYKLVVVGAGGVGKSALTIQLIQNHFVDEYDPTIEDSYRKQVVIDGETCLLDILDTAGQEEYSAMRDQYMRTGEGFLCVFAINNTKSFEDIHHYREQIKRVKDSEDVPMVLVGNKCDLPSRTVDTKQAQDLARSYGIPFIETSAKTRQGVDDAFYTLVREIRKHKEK
KRAS WT, sequence (P62937 whole entry): as the sequence (P62937 whole entry) above

SMILES	EC50 [1] [nM]	IC50 (K-Ras G12C) [nM]	IC50 (K-Ras G13C) [nM]	IC50 (KRAS G12D) [nM]	IC50 (KRAS WT) [nM]	IC50 (NRAS G12C) [nM]	IC50 (NRAS WT) [nM]
C=CC(=O)Nc1ccc(C(=O)N(C)[C@H](C(=O)N[C@H]2Cc3cc(O)cc(c3)-c3ccc4c(c3)c(c(-c3cccnc3[C@H](C)OC)n4CC)CC(C)(C)COC(=O)[C@@H]3CCCN(N3)C2=O)C(C)C)nc1 (atropisomer, axis not shown) [Example A252]	< 5000	10 to 100	< 10	1000 to 10000	100 to 1000	10 to 100	100 to 1000
C=CC(=O)N1CCN(C(=O)N(C)[C@H](C(=O)N[C@H]2Cc3cc(O)cc(c3)-c3ccc4c(c3)c(c(-c3cccnc3[C@H](C)OC)n4CC)CC(C)(C)COC(=O)[C@@H]3CCCN(N3)C2=O)C(C)C)CC1 (atropisomer, axis not shown) [Example A262]	< 5000	10 to 100	< 10	100 to 1000	10 to 100	10 to 100	10 to 100
C=CS(=O)(=O)N1CC2(CCN([C@H](C(=O)N[C@H]3Cc4cc(O)cc(c4)-c4ccc5c(c4)c(c(-c4cccnc4[C@H](C)OC)n5CC)CC(C)(C)COC(=O)[C@@H]4CCCN(N4)C3=O)C(C)C)C2=O)C1 (atropisomer, axis not shown) [Example A297]	< 5000	10 to 100	< 10	1000 to 10000	10 to 100	< 10	10 to 100
C=CC(=O)N1CC[C@H](C(=O)N(C)[C@H](C(=O)N[C@H]2Cc3cccc(c3)-c3ccc4c(c3)c(c(-c3cccnc3[C@H](C)OC)n4CC(F)(F)F)CC(C)(C)COC(=O)[C@@H]3CCCN(N3)C2=O)C(C)C)C1 (atropisomer, axis not shown) [Example A332]	< 5000	10 to 100	100 to 1000	1000 to 10000	1000 to 10000	10 to 100	1000 to 10000
C=CC(=O)N1CC[C@H](C(=O)N(C)[C@H](C(=O)N[C@H]2Cc3cc(F)cc(c3)-c3ccc4c(c3)c(c(-c3cccnc3[C@H](C)OC)n4CC)CC(C)(C)COC(=O)[C@@H]3CCCN(N3)C2=O)C(C)C)C1 (atropisomer, axis not shown) [Example A342]	< 5000	10 to 100	100 to 1000	1000 to 10000	1000 to 10000	100 to 1000	1000 to 10000
CCn1c(-c2cccnc2[C@H](C)OC)c2c3cc(ccc31)-c1cccc(c1)C[C@H](NC(=O)[C@@H](COC1CN(C(=O)C#CC(C)(C)N3CCC3)C1)C(C)C)C(=O)N1CCC[C@H](N1)C(=O)OCC(C)(C)C2 (atropisomer, axis not shown) [Example A346]	< 5000	< 10	1000 to 10000	> 10000	> 10000	10 to 100	> 10000
CO[C@@H](C)c1ncccc1-c1c2c3cc(ccc3n1CC(F)(F)F)-c1cc(F)cc(c1)C[C@H](NC(=O)[C@@H](COC1CN(C(=O)C#CC(C)(C)N(C)C)C1)C(C)C)C(=O)N1CCC[C@H](N1)C(=O)OCC(C)(C)C2 (atropisomer, axis not shown) [Example A348]	< 5000	< 10	1000 to 10000	> 10000	1000 to 10000	< 10	1000 to 10000
CCn1c(-c2cccnc2[C@H](C)OC)c2c3cc(ccc31)-c1cccc(c1)C[C@H](NC(=O)[C@H](C(C)C)N1CO[C@]3(CCN(C(=O)C#CC(C)(C)N4CCC4)C3)C1=O)C(=O)N1CCC[C@H](N1)C(=O)OCC(C)(C)C2 (atropisomer, axis not shown) [Example A351]	< 5000	< 10	100 to 1000	1000 to 10000	100 to 1000	< 10	100 to 1000
C=CC(=O)N1CC[C@@]2(CCN(C(=O)N(C)[C@H](C(=O)N[C@H]3Cc4nc(cs4)-c4ccc5c(c4)c(c(-c4cccnc4[C@H](C)OC)n5CC)CC(C)(C)COC(=O)[C@@H]4CCCN(N4)C3=O)C(C)C)C2)C1 (atropisomer, axis not shown) [Example A367]	< 5000	10 to 100	100 to 1000	100 to 1000	10 to 100	10 to 100	10 to 100
C=CC(=O)N(C)CC1CN(C(=O)N(C)[C@H](C(=O)N[C@H]2Cc3nc(cs3)-c3ccc4c(c3)c(c(-c3cccnc3[C@H](C)OC)n4CC)CC(C)(C)COC(=O)[C@@H]3CCCN(N3)C2=O)C(C)C)C1 (atropisomer, axis not shown) [Example A368]	< 5000	10 to 100	100 to 1000	100 to 1000	100 to 1000	10 to 100	10 to 100
C=CC(=O)N1CC[C@]2(C1)OCN([C@H](C(=O)N[C@H]1Cc3cccc(c3)-c3ccc4c(c3)c(c(-c3cccnc3[C@H](C)OC)n4CC)CC(C)(C)COC(=O)[C@@H]3CCCN(N3)C1=O)C(C)C)C2=O (atropisomer, axis not shown) [Example A371]	< 5000	10 to 100	100 to 1000	> 10000	1000 to 10000	10 to 100	1000 to 10000
CO[C@@H](C)c1ncccc1-c1c2c3cc(ccc3n1CC(F)(F)F)N1CCO[C@@H](C[C@H](NC(=O)[C@@H](COC3CN(C(=O)C#CC(C)(C)N(C)C)C3)C(C)C)C(=O)N3CCC[C@H](N3)C(=O)OCC(C)(C)C2)C1 (atropisomer, axis not shown) [Example A375, (2R)-2-(((1-(4-(dimethylamino)-4-methylpent-2-ynoyl)azetidin-3-yl)oxy)methyl)-N-((2^2S,6^3S,4S)-1^2-(2-((S)-1-methoxyethyl)pyridin-3-yl)-10,10-dimethyl-5,7-dioxo-1^1-(2,2,2-trifluoroethyl)-6^1,6^2,6^3,6^4,6^5,6^6-hexahydro-1^1H-8-oxa-2(4,2)-morpholina-1(5,3)-indola-6(1,3)-pyridazinacycloundecaphane-4-yl)-3-methylbutanamide]	< 5000	< 10	1000 to 10000	> 10000	1000 to 10000	< 10	1000 to 10000
C=CC(=O)N(C)[C@@H]1CCCN(C(=O)N(C)[C@H](C(=O)N[C@H]2Cc3nc(cs3)-c3ccc4c(c3)c(c(-c3cccnc3[C@H](C)OC)n4CC)CC(C)(C)COC(=O)[C@@H]3CCCN(N3)C2=O)C(C)C)C1 (atropisomer, axis not shown) [Example A382]	< 5000	10 to 100	100 to 1000	100 to 1000	10 to 100	10 to 100	10 to 100
C=CC(=O)N(C)C1CCN(C(=O)N(C)[C@H](C(=O)N[C@H]2Cc3nc(cs3)-c3ccc4c(c3)c(c(-c3cccnc3[C@H](C)OC)n4CC)CC(C)(C)COC(=O)[C@@H]3CCCN(N3)C2=O)C(C)C)CC1 (atropisomer, axis not shown) [Example A383]	< 5000	10 to 100	10 to 100	100 to 1000	10 to 100	10 to 100	10 to 100
C=CC(=O)N1C[C@@H](C)N(C(=O)N(C)[C@H](C(=O)N[C@H]2Cc3nc(cs3)-c3ccc4c(c3)c(c(-c3cccnc3[C@H](C)OC)n4CC)CC(C)(C)COC(=O)[C@@H]3CCCN(N3)C2=O)C(C)C)[C@H](C)C1 (atropisomer, axis not shown) [Example A388]	< 5000	< 10	10 to 100	10 to 100	< 10	< 10	< 10
C=CC(=O)N1C[C@@H]2CN(C(=O)N(C)[C@H](C(=O)N[C@H]3Cc4nc(cs4)-c4ccc5c(c4)c(c(-c4cccnc4[C@H](C)OC)n5CC)CC(C)(C)COC(=O)[C@@H]4CCCN(N4)C3=O)C(C)C)C[C@@H]2C1 (atropisomer, axis not shown) [Example A389]	< 5000	10 to 100	10 to 100	100 to 1000	10 to 100	10 to 100	10 to 100
C=CC(=O)N(C)[C@@H]1CCN(C(=O)N(C)[C@H](C(=O)N[C@H]2Cc3nc(cs3)-c3ccc4c(c3)c(c(-c3cccnc3[C@H](C)OC)n4CC)CC(C)(C)COC(=O)[C@@H]3CCCN(N3)C2=O)C(C)C)C1 (atropisomer, axis not shown) [Example A416]	< 5000	10 to 100	100 to 1000	1000 to 10000	100 to 1000	100 to 1000	100 to 1000
